Read-outs that look alike come from different tables or passages of the source.

As a reminder, the inhibition is the share of the control response that was lost under treatment. In general, IC50 refers to the concentration needed to halve the response being measured.

The target of data set [1] is T1, recombinant human TopI (HTopI) (Homo sapiens, UniProt P11387).
T1 sequence (P11387 1-765): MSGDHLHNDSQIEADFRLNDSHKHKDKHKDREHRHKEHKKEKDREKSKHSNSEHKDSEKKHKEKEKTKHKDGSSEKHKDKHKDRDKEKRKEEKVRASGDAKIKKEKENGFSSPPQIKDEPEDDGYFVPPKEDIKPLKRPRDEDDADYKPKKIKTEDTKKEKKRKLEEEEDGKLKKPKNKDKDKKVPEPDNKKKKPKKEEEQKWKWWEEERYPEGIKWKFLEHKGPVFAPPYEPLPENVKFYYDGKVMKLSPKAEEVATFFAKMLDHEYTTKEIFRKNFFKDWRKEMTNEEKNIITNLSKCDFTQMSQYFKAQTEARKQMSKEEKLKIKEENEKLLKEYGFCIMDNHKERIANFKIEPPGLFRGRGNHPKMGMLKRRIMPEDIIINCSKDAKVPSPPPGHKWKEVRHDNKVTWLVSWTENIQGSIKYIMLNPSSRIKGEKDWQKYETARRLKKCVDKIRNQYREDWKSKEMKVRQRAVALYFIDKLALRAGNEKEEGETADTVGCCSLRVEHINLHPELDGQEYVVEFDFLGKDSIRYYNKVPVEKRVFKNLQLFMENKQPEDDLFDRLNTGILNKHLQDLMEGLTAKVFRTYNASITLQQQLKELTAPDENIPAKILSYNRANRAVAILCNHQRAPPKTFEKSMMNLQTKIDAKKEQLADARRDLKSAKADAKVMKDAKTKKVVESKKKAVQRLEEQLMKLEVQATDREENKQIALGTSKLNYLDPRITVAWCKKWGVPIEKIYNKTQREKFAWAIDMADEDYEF
In words: Gel based plasmid DNA relaxation assay with recombinant TopI (in vitro). Format: biochemical. The note with it: for inhibition at 10 µM: read-out: In vitro inhibition at 10 μM; for IC50: plasmid DNA relaxation. The method, then: (§1) Human ToPI Inhibition in Plasmid DNA Relaxation Assays with Recombinant TopI (In Vitro) or MCF7 Cell Lysates (Ex Vivo)
(§2) Relaxation of supercoiled pBSSK(^+) DNA with recombinant human TopI (HTopI) at a molar ratio of 3:1 at 37° C. for 30 minutes was performed

Data set [2] concerns the target T2, endogenous TopI from the whole cell extracts of human breast adenocarcinoma (MCF7) cell (Homo sapiens, UniProt P11387).
T2 construct: TopI enzyme in the extract is conserved in its native structure among a plethora of other cellular proteins; endogenous in cells; host or cells: MCF7 whole cell extract
T2 sequence (P11387 1-765): T1 sequence (P11387 1-765)
The data set can be described thus: Plasmid DNA relaxation assay with MCF7 cell lysates (ex vivo). Type of data set: biochemical. The note with it: MCF7 cell lysates as source of TopI. How it is done: as §1, §2
cellular extracts were utilized as a source of TopI (ex vivo) in plasmid DNA relaxation assays. TopI enzyme in the extract is conserved in its native structure among a plethora of other cellular proteins.

The nature of data set [3]: Caco-2 permeability (21 day culture of Caco-2 cell monolayer). Type of data set: in vitro ADME. The note with it: human; for recovery at 120 min, 10 μM: Caco-2, pH 7.4, Caco-2; for Papp A→B at 120 min, 10 μM / Papp B→A at 120 min, 10 μM: pH 7.4, Caco-2, 10 μM; for Papp A→B at 120 min, 10 μM: read-out: Papp Apical to Basal; for Papp B→A at 120 min, 10 μM: read-out: Papp Basal to Apical. The method, then:
5 mL of 100 mM sodium pyruvate, 5 mL of 10× non-essential amino acids, 5 mL of penstrep were added to 100 mL of heat inactivated foetal bovine serum to 385 mL of DMEM aseptically and mixed thoroughly. One vial of Hank's balanced salt (Sigma-H1387) was dissolved in 900 mL of milli Q water; adjusted the pH to 7.4 and made up the volume to 1000 mL with the same. The solution was filter sterilized and stored at 4° C. Stock solution of test compound (10 mM) was prepared in DMSO. 10 mM stock was diluted with HBSS Buffer to a final concentration of 10 μM.
250 μL of DMEM was added to the basal compartment of 96 well multi-screen Caco-2 plate and seeded 12000 cells/well (0.16×10^6 cells/ml) in all the apical wells required and one well with only media as blank without cells, placed the Caco-2 plate in CO2 incubator at 37° C. for proliferation of cells.
On the day of assay, medium was removed and washed twice with HBSS Buffer and incubated with HBSS buffer for 30 min in an incubator and wells with TEER values >230 ohm·cm^2 were selected for the incubation. 75 μL of test compound was added to apical wells and 250 μL of HBSS buffer with 2% BSA was added to basal wells. 25 μL of basal samples was collected at 120 min and processed as stated below.
250 μL of test compound was added to basal wells and 75 μL of HBSS buffer with 2% BSA was added to apical wells. 25 μL of apical samples was collected at 120 min and processed as stated below.
Single point calibration curve in HBSS buffer with 2% BSA was used. Donor samples were diluted 1:1 with HBSS containing 2% BSA and receiver samples were diluted with 1.1 HBSS buffer and precipitated with 200 μL of acetonitrile containing internal standard and vortexed for 5 min @ 1000 rpm, centrifuged at 4000 rpm for 10 min. Finally 100 μL of supernatant was diluted with 200 μL of water and submitted for LC-MS/MS analysis.
(In general: Caco-2 monolayers are a common model of the intestinal barrier.)

A further data set can be described thus: Plasma stability assay. Format: in vitro ADME. The note with it: pH 7.4, 37° C., 1 μM. The method, then:
The stock solution of 10 mM of test compound in DMSO was prepared and stored at 4° C. 25 μM stock of test compound was prepared in acetonitrile: water by diluting from 10 mM stock (i.e. 2.5 μL of 10 mM stock solution was added to 997.5 μL of acetonitrile: water (50:50). The frozen plasma was thawed at room temperature and centrifuged at 1400×RCF (relative centrifugal force) 4° C., for 15 minutes. Approximately 90% of the clear supernatant fraction was transferred to a separate tube and was used for the assay.
For 0 min samples, plasma was heat inactivated at 56° C. for 45 min. To 72 μL of heat inactivated plasma, 3 μL of 25 μM test compound was added. A 25 μL aliquot of the mixture was taken and crashed with 200 μL of acetonitrile containing internal standard and further processed along with other time points. For other time point samples, final working stock of 1 μM was prepared by diluting in plasma (i.e. 8 μL of 25 μM acetonitrile:water stock was added to 192 μL of plasma). 200 μL of plasma containing the test compound was incubated for 2 hrs at 37° C. in shaker water bath with gentle shaking. 25 μL aliquot of sample at 0, 15, 30, 60 and 120 min was precipitated immediately with 200 μL of acetonitrile containing internal standard and centrifuged at 4000×RCF, 4° C. for 20 minutes. 150 μL of supernatant was diluted with 150 μL of water and analyzed on LC-MS/MS.

The nature of data set [4]: Lipophilicity assay (octanol/buffer Log D). The note with it: octanol / sodium phosphate buffer pH 7.4.
The mark [5] stands for this setting: recombinant human TopI, at 10 μM.

For the compound `COc1ccc(-c2ccc3ncc(-c4nnc(C)o4)c(NCCN4CCOCC4)c3c2)cc1` [Compound 14, 6-(4-methoxyphenyl)-3-(5-methyl-1,3,4-oxadiazol-2-yl)-N-(2-morpholinoethyl)quinolin-4-amine], the inhibition at 10 µM in data set [1] (setting [5]) was 50%.

As to `CCOC(=O)c1cnc2ccc(Br)cc2c1NCCCn1ccnc1` [Compound 15, ethyl 4-((3-(1H-imidazol-1-yl)propyl)amino)-6-bromoquinoline-3-carboxylate], the inhibition at 10 µM in data set [1] (setting [5]) amounted to 30%.

Regarding `Brc1ccc2ncc(-c3nnco3)c(NCCCn3ccnc3)c2c1` [Compound 17, N-(3-(1H-imidazol-1-yl)propyl)-6-bromo-3-(1,3,4-oxadiazol-2-yl)quinolin-4-amine], the inhibition at 10 µM in data set [1] (setting [5]) was determined as 30%.

On to `Nc1ccc(-c2ccc3ncc(-c4nnco4)c(NCCCn4ccnc4)c3c2)cc1` [Compound 20, N-(3-(1H-imidazol-1-yl)propyl)-6-(4-aminophenyl)-3-(1,3,4-oxadiazol-2-yl)quinolin-4-amine], for which the IC50 stood at 2250 nM in data set [2] and 24 nM in data set [1] (recombinant human TopI). The recovery at 120 min, 10 μM in data set [3] (read-out: A to B % Recovery) was 72.7%; in data set [3] (read-out: B to A % Recovery), 91.7%. Also, the Papp A→B at 120 min, 10 μM in data set [3] was determined as 0.63 ×10⁻⁶ cm/s. The Papp B→A at 120 min, 10 μM in data set [3] is 44.2 ×10⁻⁶ cm/s. For the same compound, in “Plasma stability assay”, the “Mean % remaining at 2 hrs in human Plasma” value (shortened to “Mean % remaining at 2 hrs”) was 91.32%. Also, the “Log D @ pH 7.40 Mean” value in data set [4] is 2.56.

For `COc1ccc(-c2ccc3ncc(-c4nnco4)c(NCCCn4ccnc4)c3c2)c(OC)c1` [Compound 27, N-(3-(1H-imidazol-1-yl)propyl)-6-(2,4-dimethoxyphenyl)-3-(1,3,4-oxadiazol-2-yl)quinolin-4-amine], the inhibition at 10 µM in data set [1] (setting [5]) was determined as 45%.

On to `COc1ccc(-c2ccc3ncc(-c4nnco4)c(NCCCn4ccnc4)c3c2)cc1C` [Compound 28, N-(3-(1H-imidazol-1-yl)propyl)-6-(4-methoxy-3-methylphenyl)-3-(1,3,4-oxadiazol-2-yl)quinolin-4-amine], for which the IC50 in data set [2] was found to be 3000 nM; in data set [1] (recombinant human TopI), 2360 nM.

For `Cc1ccc(-c2ccc3ncc(-c4nnco4)c(NCCCn4ccnc4)c3c2)cc1` [Compound 29, N-(3-(1H-imidazol-1-yl)propyl)-3-(1,3,4-oxadiazol-2-yl)-6-p-tolylquinolin-4-amine], the results for the IC50 in data set [2] and in data set [1] (recombinant human TopI) were 3750 nM and 1060 nM, respectively.

For the compound `COc1ccc(-c2ccc3ncc(-c4nnco4)c(NCCCN4CCOCC4)c3c2)cc1` [Compound 43, 6-(4-methoxyphenyl)-N-(3-morpholinopropyl)-3-(1,3,4-oxadiazol-2-yl)quinolin-4-amine], the recovery at 120 min, 10 μM in data set [3] (read-out: A to B % Recovery) is 42.6%. Besides, the recovery at 120 min, 10 μM in data set [3] (read-out: B to A % Recovery) is 58.5%. Also, in data set [3], the Papp A→B at 120 min, 10 μM stood at 10.9 ×10⁻⁶ cm/s and the Papp B→A at 120 min, 10 μM stood at 11 ×10⁻⁶ cm/s. For the same compound, the “Mean % remaining at 2 hrs” value in “Plasma stability assay” was found to be 83.38%. For the same compound, in data set [4], the “Log D @ pH 7.40 Mean” value was 3.26.

Turning to `COc1ccc(-c2ccc3ncc(-c4nnc(N)o4)c(NCCCn4ccnc4)c3c2)cc1` [Compound 52, 5-(4-(3-(1H-imidazol-1-yl)propylamino)-6-(4-methoxyphenyl)quinolin-3-yl)-1,3,4-oxadiazol-2-amine], the inhibition at 10 µM in data set [1] amounted to 45%.

Regarding `COc1ccc(-c2ccc3ncc(-c4nnc(C)o4)c(NCCCn4ccnc4)c3c2)cc1` [Compound 54, N-(3-(1H-imidazol-1-yl)propyl)-6-(4-methoxyphenyl)-3-(5-methyl-1,3,4-oxadiazol-2-yl)quinolin-4-amine], the inhibition at 10 µM in data set [1] (setting [5]) was found to be 55%.

Take `COc1ccc(-c2ccc3ncc(-c4ccc(N)nc4)c(NCCCn4ccnc4)c3c2)cc1` [Compound 73, N-(3-(1H-imidazol-1-yl)propyl)-3-(6-aminopyridin-3-yl)-6-(4-methoxyphenyl)quinolin-4-amine]: the IC50 in data set [1] (recombinant human TopI) was determined as 5240 nM.

Consider `CNc1c(-c2nnco2)cnc2ccc(-c3ccc(OC)cc3)cc12` [Compound 77, 6-(4-methoxyphenyl)-N-methyl-3-(1,3,4-oxadiazol-2-yl)quinolin-4-amine], for which the inhibition at 10 µM in data set [1] (setting [5]) is 20%.

In the case of `CCOC(=O)c1cnc2ccc(-c3ccc(OC)cc3)cc2c1NCCCn1ccnc1` [Compound 78, ethyl 4-((3-(1H-imidazol-1-yl)propyl)amino)-6-(4-methoxyphenyl)quinoline-3-carboxylate], the inhibition at 10 µM in data set [1] (setting [5]) amounted to 35%.

As for `COCCc1ccc(OCC(O)CNC(C)C)cc1` (stereo not shown) [Metoprolol, reference compound], in data set [4], the “Log D @ pH 7.40 Mean” value is listed as −0.29.

On to `CC(C)[N+](C)(CCOC(=O)C1c2ccccc2Oc2ccccc21)C(C)C` [Propantheline, reference compound], for which, in the data set “Plasma stability assay”, the “Mean % remaining at 2 hrs” value is 0.00%.

Regarding `CC(C)NCC(O)COc1cccc2ccccc12` (stereo not shown) [Propranolol, reference compound], in data set [3] (read-out: A to B % Recovery), the recovery at 120 min, 10 μM was 68%. Further, the recovery at 120 min, 10 μM in data set [3] (read-out: B to A % Recovery) was found to be 72.7%. In data set [3], the Papp A→B at 120 min, 10 μM is 19.1 ×10⁻⁶ cm/s and the Papp B→A at 120 min, 10 μM amounted to 13.3 ×10⁻⁶ cm/s.

For Topotecan [reference compound], the “Mean % remaining at 2 hrs” value in “Plasma stability assay” is listed as 11.5%.
